Residue numbers refer to the chain shown, from its start. Where two headings read alike, the source gives them in different places.

One experiment relates to rat brain SR. Further details: method as in PMID 30918891, PMID 12021263. Particulars: cited from earlier work.
The next experiment deals with T1, hSR Y121G (Homo sapiens, UniProt Q9GZT4, C2D/C6D/Y121G).
T1 construct: (His)6 (C); made in house; host or cells: E. coli BL21-CodonPlus (DE3)-RIL
T1 sequence (Q9GZT4 1-340 C2D/C6D/Y121G): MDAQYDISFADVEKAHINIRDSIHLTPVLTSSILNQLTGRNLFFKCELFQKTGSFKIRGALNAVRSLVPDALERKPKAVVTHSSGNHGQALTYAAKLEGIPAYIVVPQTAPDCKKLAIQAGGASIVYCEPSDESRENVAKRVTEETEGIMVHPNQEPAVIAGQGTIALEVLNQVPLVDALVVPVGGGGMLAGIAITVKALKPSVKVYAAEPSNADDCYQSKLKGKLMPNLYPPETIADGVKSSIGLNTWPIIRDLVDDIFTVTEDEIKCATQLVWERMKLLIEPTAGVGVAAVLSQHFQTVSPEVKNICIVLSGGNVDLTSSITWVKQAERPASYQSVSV
In words: L- to D-Ser racemisation coupled luminescence assay, Y121G mutant. The experiment is classed as biochemical. Particulars: 1 mM ATP, 2 mM L-serine, 16.7% DMSO, ~ = extrapolated. The method, then:
(§1) The ability of compounds to inhibit the L to D-Ser racemisation activity of hSR was measured in a coupled assay. In the assay, hSR converts L-Ser to D-Ser. The D-Ser is then converted into pyruvate, ammonia and hydrogen peroxide using D-amino acid oxidase. Next, the hydrogen peroxide reacts with luminol in the presence of horseradish peroxidase, producing luminescent by-product. In the assay malonate was used as a control compound and gave 100% inhibition – results for XChem compounds are shown in Supplementary Table 4 and in supplementary Fig. 12. The activity of the wild-type and the three Y121 mutants, Y121F, Y121A and Y121G was measured at six ATP concentrations (1 mM, 0.5 mM, 0.25 mM, 0.125 mM, 0.062 mM and 0.031 mM) as shown in supplementary Fig. 11.
(§2) The inhibition of hSR activity was measured using a luminescence assay in a 384 well plate (flat bottom white, Corning). Initially, each well contained 100 mM Tris pH 8.5, 0.05% Pluronic f-127 (VWR), 1 mM MgCl2, 1 mM ATP (disodium salt, Fisher), 10 µM PLP, 0.3 nM hSR, 2 mM L-serine and compound at 16.67 mM to 0.0077 mM (see supplementary Fig. 12) and had 16.7% DMSO concentration. The plate was incubated at RT with shaking for 30 min. After this, the reaction was stopped using a detection mix. The final well concentration was 100 mM Tris pH 8.5, 0.05% Pluronic f-127 (VWR), 1 mM EDTA (Fisher), 0.25 U/mL horseradish peroxidase, 0.5 U/mL D-amino acid oxidase and 25 µM Luminol (Insight Biotechnology) and 8.4% DMSO. The plate was left to incubate covered and shaking for 10 min. The plate was then read using a PHERAstar (BMG) plate reader. For the ATP dependant activity data, the method was kept the same, except for varying the concentration of ATP.
(§3) The relative light units read (x) on the PHERAstar were converted into percentage inhibition (PI) using the equation: PI=100x[1−(x−Min)/(Max−Min)] where min is negative control (100% inhibition) and max is the positive control (no inhibition). The IC50s were calculated with GraphPad (Prism 8.3.1, Graphpad Software, San Diego CA).

The target in experiment [1] is T2, human serine racemase (hSR) WT (Homo sapiens, UniProt Q9GZT4, C2D/C6D).
T2 construct: (His)6 (C); made in house; host or cells: E. coli (BL21-CodonPlus (DE3)-RIL for the mutants; the wild type is only 'as described[33]')
T2 sequence (Q9GZT4 1-340 C2D/C6D): T1 sequence (Q9GZT4 1-340 C2D/C6D/Y121G) with G121Y
In words: L- to D-Ser racemisation coupled luminescence assay, wild-type hSR. The experiment is classed as biochemical. Particulars: for inhibition of SR, in words: assay data for compounds observed to displace Tyr 121; for inhibition at 16700 µM: maximum compound concentration 16.7mM, read-out: inhibition at maximum concentration used in assay; for IC50: wild-type hSR, 1 mM ATP, 2 mM L-serine, 16.7% DMSO, ~ = extrapolated with artificial 100% point at 1 M. As to the method: as §1, §2, §3

The target in the next experiment is T3, hSR Y121A (Homo sapiens, UniProt Q9GZT4, C2D/C6D/Y121A).
T3 construct: (His)6 (C); made in house; host or cells: E. coli BL21-CodonPlus (DE3)-RIL
T3 sequence (Q9GZT4 1-340 C2D/C6D/Y121A): T1 sequence (Q9GZT4 1-340 C2D/C6D/Y121G) with G121A
In words: L- to D-Ser racemisation coupled luminescence assay, Y121A mutant. Format: biochemical. Particulars: 1 mM ATP, 2 mM L-serine, 16.7% DMSO, ~ = extrapolated. The method, then: as §1, §2, §3

The next experiment addresses T4, hSR Y121F (Homo sapiens, UniProt Q9GZT4, C2D/C6D/Y121F).
T4 construct: (His)6 (C); made in house; host or cells: E. coli BL21-CodonPlus (DE3)-RIL
T4 sequence (Q9GZT4 1-340 C2D/C6D/Y121F): T1 sequence (Q9GZT4 1-340 C2D/C6D/Y121G) with G121F
In words: L- to D-Ser racemisation coupled luminescence assay, Y121F mutant. The experiment is classed as biochemical. To be noted: 1 mM ATP, 2 mM L-serine, 16.7% DMSO, ~ = extrapolated. As to the method: as §1, §2, §3

In another experiment the target is T5, hSR Tyr 121 pocket (Homo sapiens, UniProt Q9GZT4, C2D/C6D).
T5 construct: (His)6 (C); made in house; host or cells: E. coli (BL21-CodonPlus (DE3)-RIL for the mutants; the wild type is only 'as described[33]')
T5 sequence (Q9GZT4 1-340 C2D/C6D): T1 sequence (Q9GZT4 1-340 C2D/C6D/Y121G) with G121Y
The experiment in a line: XChem crystallographic fragment screen. Format: binding. Further details: key: A = best; D = worst. Particulars: crystals soaked with 150 mM fragment. As to the method: A crystallographic fragment screen was performed on holo crystals using the XChem screening strategy at Diamond Light Source[58]. For the XChem experiments, holo crystals were generated at 20 °C in 96-well Swissci 3-drop, sitting drop plates (Molecular Dimensions) using 14 mg/mL SR plus fresh 5 mM DTT dispensed in a 3:2 ratio (300 nL protein + 200 nL reservoir) equilibrated against 20 μL reservoir containing 100 mM MES pH 6.2, 100 mM Calcium chloride, 5% ethylene glycol and 20% PEG Smear Broad (Molecular Dimensions). This crystallisation condition differs from that reported in a recent crystal structure of holo SR (6SLH) which was crystallised against reservoir/precipitate of 100 mM Bis-Tris pH 6.5, 15% PEG 3350, 250 mM MgCl2[33]. ATP was present in the protein delivery buffer at 1.25-fold times the protein subunit concentration.
Crystal soaking, harvesting, mounting, and data collections were performed at the Diamond Light Source XChem facilities and beamline I04-1 through the XChem workflow[50],[59]. […] The full compound screen was performed on 600 crystals which were each soaked with 150 mM fragment compound (30% v/v of 500 mM stocks in DMSO) for ≥1.5 h before crystals were harvested and mounted on the fast microscope crystal mounting system. The fragments screened were obtained from the Diamond-SGC-iNext Poised (DSiP) XChem library.
The structure of the representative XChem holo crystal (20% DMSO soak, no fragment) presented in this paper (6ZUJ) was solved by rigid body refinement based on a previous structure (6SLH)[33] and refined with phenix.refine[71] and REFMAC5[68],[72] and modelled in coot[69]. Initial analysis of approx. 600 ligand-soaked crystals was carried out using XChemExplorer[59] a data-management and workflow tool to support large-scale simultaneous analysis of protein–ligand complexes during structure-based ligand discovery. The workflow flagged 95 structures with binding events, 44 of which were classified as interesting, spanning four distinct binding sites. Five SR structures from the XChem screen are described in this paper that are representative examples of the four major binding sites. One compound, 2-x0406, occupied not just one of the four major binding sites, but also occupied a second site adjacent to the tyrosine 121 pocket.

A further experiment concerns hSR. Further details: method as in PMID 25331425. Particulars: effect of ATP on malonate binding to the catalytic site; cited from earlier work.
The subject of another experiment is human SR. Further details: method as in ref 57,58 (a number printed in a supplementary file, which may have a reference list of its own: not looked up in the article's list). Particulars: upon addition of ATP; cited from earlier work.
The next experiment deals with T6, human SR (hSR) (Homo sapiens, UniProt Q9GZT4, C2D/C6D).
T6 construct: (His)6 (C); made in house; host or cells: E. coli (BL21-CodonPlus (DE3)-RIL for the mutants; the wild type is only 'as described[33]')
T6 sequence (Q9GZT4 1-340 C2D/C6D): T1 sequence (Q9GZT4 1-340 C2D/C6D/Y121G) with G121Y
In words: Thermal denaturation assay. To be noted: 1 mM of the additive alone; reference Tm 47.3 °C. The experiment is classed as binding. As to the method:
The melting temperature (Tm) of SR was determined in the presence and absence of malonate (disodium salt) and 1 mM ATP (disodium salt, Fisher) in a buffer containing 100 mM CHES pH 8.5, 1 mM MgCl2, and 10 µM PLP. The reaction mixture was prepared in 96-well plates containing final concentrations of 2 µM SR, 5X SYPRO Orange dye (from 5000X concentrate, ThermoFisher), and a 6-point 1:3 dilution series of malonate (0–1 mM). Each condition was assessed with and without 1 mM ATP in the buffer. Thermal denaturation analysis was performed in triplicate by transferring 10 µL reaction mixture to 384-well plates for use in a BioRad CFX384 Touch Real-Time PCR Detection System. Programme: 10 min hold at 25 °C, plate read, increase by increments of 0.5 °C up to 95 °C; each step accompanied by a 15 s hold and plate read. Data were analysed using GraphPad Prism.

In a further experiment the test system is Yeast SR. Further details: method as in ref 4 (a number printed in a supplementary file, which may have a reference list of its own: not looked up in the article's list). Particulars: ref 4; cited from earlier work.
Experiment [2] relates to slime mould (D. discoideum) SR. Further details: method as in ref 56 (a number printed in a supplementary file, which may have a reference list of its own: not looked up in the article's list). Particulars: ref 56; cited from earlier work.

`[Ca+2]` [Ca^2+]: the “SR activity in the presence of the ion” value in the experiment on rat brain SR (1 mM ion) is 134%.

On to `[Mn+2]` [Mn^2+], for which the “SR activity in the presence of the ion” value in the experiment on rat brain SR (10 μM ion) is reported as 153%.

Turning to `CC(=O)NC1CNc2ccccc2C1` (stereo not drawn) [4-x0482], the IC50 at hSR Y121G was 0.0044 mM; in experiment [1] it was 0.0051 mM; at hSR Y121A it was 0.0033 mM; at hSR Y121F, 0.0032 mM. The “inhibition of SR, in words” value in [1] is recorded as “reasonably potent inhibitors”. In [1], the inhibition at 16700 µM came out at 100%.

Turning to `OCc1ccc(-n2cnc3ccccc32)cc1` [14-x0478], the IC50 in experiment [1] was ~6.9 mM; on hSR Y121A, ~7.85 mM; on hSR Y121F, ~7.4 mM.

Regarding `NCc1cc(-c2ccccc2)no1` [12-x0437], the IC50 at hSR Y121G is ~26.3 mM; in experiment [1], ~25.3 mM; at hSR Y121A it was ~37.6 mM; on hSR Y121F it was ~29.9 mM. Further, the “Initial rank from examination of XChem electron density/fit” value at hSR Tyr 121 pocket is on record as “D”.

On to `Nc1ncnc2c1ncn2[C@@H]1O[C@H](COP(=O)(O)OP(=O)(O)OP(=O)(O)O)[C@@H](O)[C@H]1O` [ATP, Adenosine triphosphate], for which the “increase of hSR affinity for malonate” value in the experiment with hSR is given as “at least 9 fold”. Further, in the experiment on human SR, the “increase of D-serine elimination” value is on record as 4 fold, the “increase of L-serine elimination” value is reported as 31 fold and the “increase of L-serine racemisation” value is given as ~2 fold. In addition, the ΔTm at human SR (hSR) is −1.3 °C. In addition, the “increase of both reactions (racemisation and elimination)” value in the experiment on Yeast SR is “less than 2 fold”.

As for `[Mg+2]` [Mg^2+], in the experiment on rat brain SR (10 μM ion), the “SR activity in the presence of the ion” value was 112%.

Turning to `O=C(CCCc1ccccc1)N1CCOCC1` [7-x0109], the IC50 at hSR Y121G is ~26 mM; in [1], ~12.5 mM; on hSR Y121A, ~22.3 mM; on hSR Y121F it was ~20.7 mM.

For `Nc1ncnc2c1ncn2[C@@H]1O[C@H](COP(=O)(O)OP(=O)([O-])OP(=O)([O-])O)[C@@H](O)[C@H]1O.[Mg+2]` [Mg-ATP], in experiment [2], the increase of elimination was 6 fold and the increase of racemisation is given as 2.5 fold.

Turning to `Nc1ccccc1N1CCOCC1` [3-x0458], the IC50 on hSR Y121G was 0.0234 mM; in [1], 0.0106 mM; on hSR Y121A, 0.0094 mM; on hSR Y121F it was 0.0123 mM. In experiment [1], the “inhibition of SR, in words” value was “reasonably potent inhibitors”. The inhibition at 16700 µM in experiment [1] came to 100%.

As to `O=C(NCc1nc2ccccc2[nH]1)c1ccco1` [2-x0406], the IC50 on hSR Y121G was ~7.4 mM; in [1], ~3.7 mM; at hSR Y121A, ~8.4 mM; on hSR Y121F it was ~7.8 mM.

By IC50 is commonly meant the midpoint of a concentration-inhibition curve. The term ΔTm denotes the change in melting temperature against a reference sample.

Source of the values: paper PMC9001717, “Tyrosine 121 moves revealing a ligandable pocket that couples catalysis to ATP-binding in serine racemase” (Communications Biology, 2022).
